Assay results as given in US20070276037A1, “Cytoprotective Effects of Ethyl Pyruvate” (priority 2003, published 2007).

Assays:
[1] = test system: ischemic and nonischemic myocardium; assay: Myocardial lipid peroxidation measurements after ischemia and reperfusion; format: in vivo, rat
myocardial function [2] = assay: Cardiac function over the course of induced ischemia and reperfusion, percentage of baseline (FIGS. 5-7); format: in vivo; settings: p<0.05
Description: In order to determine overall effects of ethyl pyruvate on cardiac function, a number of parameters were evaluated over the course of induced ischemia, and reperfusion, as a function of time.

ischemic myocardium = assay: Myocardial ATP levels (luciferin/luciferase bioluminescence) in acute in vivo ischemia-reperfusion model; parameters: species or system rat; settings: n=5
myocardial function [3] = assay: Cardiac functional assessment following ischemia and reperfusion (pressure/volume conductance catheter, flow probe); format: in vivo, rat
[4] = test system: left ventricular infarction; assay: Planimetric determination of left ventricular infarction size (TTC/Evans blue); format: in vivo, rat; settings: 30 minutes ischemia and 30 minutes reperfusion; n=15; mean ± SEM
[5] = 30 min ischemia / 30 min reperfusion, n=6, FIG. 2, mean ± SEM
[6] = after 30 min ischemia / 30 min reperfusion, n=15
[7] = following ischemia and reperfusion, n=15, mean ± SEM, FIG. 8

SMILES: CCOC(=O)C(C)=O [ethyl pyruvate]
- Lipid peroxide level, ischemic myocardium [1, 5]: 63.8 ± 3.3 nmol/g
- Lipid peroxide level, nonischemic myocardium [1, 5]: 42.3 ± 4.8 nmol/g
- Lipid peroxide level, ischemic myocardium ([1]; n=5, FIG. 3, mean ± SEM): 70.4 ± 2.6 nmol/g
- Lipid peroxidation in ischemic myocardium versus control hearts ([1]; n=6, FIG. 2): decreased the level of lipid peroxidation
- Lipid peroxidation in remote nonischemic myocardium versus control ([1]; n=6, FIG. 2): equivalent
- dP/dtmax (contractility) as percentage of baseline, versus controls (myocardial function [2]; after 8 minutes of ischemia and throughout reperfusion, FIG. 6): significantly greater
- Maximum left ventricular (LV) pressure as percentage of baseline, versus controls (myocardial function [2]; throughout ischemia and reperfusion, FIG. 5): significantly greater
- Cardiac output as percentage of baseline, versus controls (myocardial function [2]; throughout ischemia and reperfusion, FIG. 7): significantly greater
- ATP level in ischemic region of heart (ischemic myocardium; 10 minutes after initiation of ischemia, 1.5 mL/kg iv bolus of 28 mmol/L ethyl pyruvate in Ringer's, mean ± SEM): 87.6 ± 29.2 nmol/g
- ATP levels versus controls (ischemic myocardium; ischemic myocardium 10 minutes after initiation of ischemia, FIG. 1): Significantly higher levels of ATP
- Myocardial function (end systolic pressure volume relationships) versus control animals (myocardial function [3]; FIG. 8): significantly improved myocardial function
- Cardiac output (myocardial function [3]; [6]): 26.7 ± 0.9 mL/min
- Ejection fraction (myocardial function [3]; [6]): 41.9 ± 3.8%
- Heart rate (myocardial function [3]; [6]): 183 ± 9.5 bpm
- Maximum dP/dt (myocardial function [3]; [6]): 3518 + 243 mm Hg/s
- Maximum pressure (myocardial function [3]; [6]): 86.6 ± 2.9 mm Hg
- Minimum dP/dt (myocardial function [3]; [6]): 2841 + 329 mm Hg/s
- ESPVR slope (myocardial function [3]; [7]): 1.09±0.22
- ESPVR x-axis intercept (x-int) (myocardial function [3]; [7]): 4.1±19.9
- Composite ESPVR (myocardial function [3]; regression composite, n=15, FIG. 8): 1.08 (ESV-4.0B)
- Left ventricular area at risk infarcted (infarction area/area at risk) [4]: 25.3%±1.5
